Publication PMC7614683, “A small molecule PI3Kα activator for cardioprotection and neuroregeneration” (Nature, 2023)

Key:
Assay in all cases: SelectScreen LanthaScreen Binding
Settings in all cases: 1000 nM
DDR2 = target: T1, DDR2 (Homo sapiens, UniProt Q16832)
T1 sequence (Q16832 22-855): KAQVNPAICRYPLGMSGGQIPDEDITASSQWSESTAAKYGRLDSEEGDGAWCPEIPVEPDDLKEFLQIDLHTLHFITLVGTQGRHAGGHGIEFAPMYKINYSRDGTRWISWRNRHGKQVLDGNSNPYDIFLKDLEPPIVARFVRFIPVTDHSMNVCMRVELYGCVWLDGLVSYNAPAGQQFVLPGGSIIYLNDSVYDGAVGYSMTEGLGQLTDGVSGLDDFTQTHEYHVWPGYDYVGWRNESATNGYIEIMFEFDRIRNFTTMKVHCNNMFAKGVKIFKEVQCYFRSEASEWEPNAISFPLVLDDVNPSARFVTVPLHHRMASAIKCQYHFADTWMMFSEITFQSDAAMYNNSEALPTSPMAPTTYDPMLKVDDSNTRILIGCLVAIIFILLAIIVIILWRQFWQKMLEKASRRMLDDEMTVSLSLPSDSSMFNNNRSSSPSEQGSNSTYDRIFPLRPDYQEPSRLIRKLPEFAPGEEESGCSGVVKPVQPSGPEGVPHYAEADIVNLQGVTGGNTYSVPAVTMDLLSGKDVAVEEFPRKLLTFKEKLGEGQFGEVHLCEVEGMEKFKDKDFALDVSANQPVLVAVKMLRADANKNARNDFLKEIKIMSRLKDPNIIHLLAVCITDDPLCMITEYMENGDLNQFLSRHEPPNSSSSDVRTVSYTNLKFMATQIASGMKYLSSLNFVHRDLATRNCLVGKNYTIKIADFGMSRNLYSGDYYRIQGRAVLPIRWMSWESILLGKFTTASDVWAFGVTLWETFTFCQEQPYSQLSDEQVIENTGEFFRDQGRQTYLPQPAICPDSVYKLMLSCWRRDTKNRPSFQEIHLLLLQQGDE
Protocol: (§1) 133 protein kinases and 7 lipid kinases were counterscreened, with 1938 used at 1 μM, using the Adapta, Lantha and Z-LYTE assays (SelectScreen Kinase Profiling Service; Thermofisher – experimental details of these assays can be found here: https://www.thermofisher.com/uk/en/home/industrial/pharma-biopharma/drug-discovery-development/target-and-lead-identification-and-validation/kinasebiology/kinase-activity-assays.html. The tree represention in KinMap[59] generated courtesy of Cell Signaling Technology, Inc. (www.cellsignal.com). mTORC1 (mTOR/RAPTOR/LST8) protein complex and ATM kinase and substrates were produced as previously described[57],[60]. Screening of 1938 was conducted using SuperSep Phos-Tag 50 μmol/l 100 x 100 x 6.6 mm 17-well (192-18001/199-18011) gels. For ATM assays, 100 nM ATM was incubated for 30 min at 30°C with 5 μM GST-p53 and 1 mM ATP, in the absence or presence of 200 μM 1938 in ATM Kinase Buffer (50 mM HEPES pH 7.5, 100 mM NaCl, 10% glycerol, 2 mM […], 5 mM MgCl2). As a positive control for ATM activation, the same reaction was carried out with 100 nM ATM/5 μM GST-p53/1 mM ATP in the presence of 100 nM Mre11-Rad50-Nbs1 (MRN) complex, a known activator of ATM[61]. For mTORC1 assays, 50 nM mTORC1 complex (mTOR/LST8/RAPTOR) was incubated for 3 h at 30°C with 15 μM 4E-BP1, 10 mM MgCl2 and 250 μM ATP, in the absence or presence of 200 μM 1938. As a ‘positive’ control, a higher concentration (150 nM) of mTORC1 complex (mTOR/LST8/RAPTOR) was incubated for 3 h at 30°C with 15 μM 4E-BP1, 10 mM MgCl2 and 250 μM ATP. Kinase reactions were quenched by addition of SDS-PAGE Loading Buffer (as per manufacturer’s instructions) and freezing at -20°C before being run on the Phos-tag gels at 150 V for 90 min. Gels were then stained using InstantBlue™ Coomassie, and quantified using BioRad Image Lab Software. Kinase assays were carried out in triplicate.

DMPK = target: T2, DMPK (Homo sapiens, UniProt Q09013)
T2 sequence (Q09013 1-629): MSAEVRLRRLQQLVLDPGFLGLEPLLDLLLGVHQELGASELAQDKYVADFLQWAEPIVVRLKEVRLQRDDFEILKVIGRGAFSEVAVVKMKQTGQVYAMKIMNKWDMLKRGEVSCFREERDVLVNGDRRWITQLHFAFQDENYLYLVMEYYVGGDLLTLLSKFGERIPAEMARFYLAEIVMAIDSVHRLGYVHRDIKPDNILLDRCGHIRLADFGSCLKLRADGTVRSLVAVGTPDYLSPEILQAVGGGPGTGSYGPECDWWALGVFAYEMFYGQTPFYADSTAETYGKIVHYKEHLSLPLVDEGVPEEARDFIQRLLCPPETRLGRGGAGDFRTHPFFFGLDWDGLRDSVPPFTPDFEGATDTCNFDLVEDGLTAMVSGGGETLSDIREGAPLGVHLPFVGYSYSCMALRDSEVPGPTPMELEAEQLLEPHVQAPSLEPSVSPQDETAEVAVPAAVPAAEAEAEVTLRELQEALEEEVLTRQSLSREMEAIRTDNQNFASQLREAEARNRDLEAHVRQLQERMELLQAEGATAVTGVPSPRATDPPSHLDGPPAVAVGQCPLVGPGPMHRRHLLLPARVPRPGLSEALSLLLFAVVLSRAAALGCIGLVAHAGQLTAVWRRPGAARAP
Protocol: as §1

[1] = target: T3, MAP3K7/MAP3K7IP1 (TAK1-TAB1) (Homo sapiens, UniProt O43318)
T3 sequence (O43318 with tags, fused parts or gaps limits assumed): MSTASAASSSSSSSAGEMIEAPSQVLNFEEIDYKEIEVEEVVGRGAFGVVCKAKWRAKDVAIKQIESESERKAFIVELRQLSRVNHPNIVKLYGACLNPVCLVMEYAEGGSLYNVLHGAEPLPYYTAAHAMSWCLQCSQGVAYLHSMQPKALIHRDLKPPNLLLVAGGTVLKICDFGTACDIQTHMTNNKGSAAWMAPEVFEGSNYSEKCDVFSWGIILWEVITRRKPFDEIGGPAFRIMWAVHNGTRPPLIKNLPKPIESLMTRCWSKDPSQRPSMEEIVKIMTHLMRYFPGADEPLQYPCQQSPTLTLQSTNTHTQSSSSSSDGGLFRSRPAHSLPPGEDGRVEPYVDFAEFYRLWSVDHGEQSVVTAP
Protocol: as §1

TNIK = TNIK (Homo sapiens, UniProt Q9UKE5)
Sequence of TNIK (Q9UKE5 whole entry): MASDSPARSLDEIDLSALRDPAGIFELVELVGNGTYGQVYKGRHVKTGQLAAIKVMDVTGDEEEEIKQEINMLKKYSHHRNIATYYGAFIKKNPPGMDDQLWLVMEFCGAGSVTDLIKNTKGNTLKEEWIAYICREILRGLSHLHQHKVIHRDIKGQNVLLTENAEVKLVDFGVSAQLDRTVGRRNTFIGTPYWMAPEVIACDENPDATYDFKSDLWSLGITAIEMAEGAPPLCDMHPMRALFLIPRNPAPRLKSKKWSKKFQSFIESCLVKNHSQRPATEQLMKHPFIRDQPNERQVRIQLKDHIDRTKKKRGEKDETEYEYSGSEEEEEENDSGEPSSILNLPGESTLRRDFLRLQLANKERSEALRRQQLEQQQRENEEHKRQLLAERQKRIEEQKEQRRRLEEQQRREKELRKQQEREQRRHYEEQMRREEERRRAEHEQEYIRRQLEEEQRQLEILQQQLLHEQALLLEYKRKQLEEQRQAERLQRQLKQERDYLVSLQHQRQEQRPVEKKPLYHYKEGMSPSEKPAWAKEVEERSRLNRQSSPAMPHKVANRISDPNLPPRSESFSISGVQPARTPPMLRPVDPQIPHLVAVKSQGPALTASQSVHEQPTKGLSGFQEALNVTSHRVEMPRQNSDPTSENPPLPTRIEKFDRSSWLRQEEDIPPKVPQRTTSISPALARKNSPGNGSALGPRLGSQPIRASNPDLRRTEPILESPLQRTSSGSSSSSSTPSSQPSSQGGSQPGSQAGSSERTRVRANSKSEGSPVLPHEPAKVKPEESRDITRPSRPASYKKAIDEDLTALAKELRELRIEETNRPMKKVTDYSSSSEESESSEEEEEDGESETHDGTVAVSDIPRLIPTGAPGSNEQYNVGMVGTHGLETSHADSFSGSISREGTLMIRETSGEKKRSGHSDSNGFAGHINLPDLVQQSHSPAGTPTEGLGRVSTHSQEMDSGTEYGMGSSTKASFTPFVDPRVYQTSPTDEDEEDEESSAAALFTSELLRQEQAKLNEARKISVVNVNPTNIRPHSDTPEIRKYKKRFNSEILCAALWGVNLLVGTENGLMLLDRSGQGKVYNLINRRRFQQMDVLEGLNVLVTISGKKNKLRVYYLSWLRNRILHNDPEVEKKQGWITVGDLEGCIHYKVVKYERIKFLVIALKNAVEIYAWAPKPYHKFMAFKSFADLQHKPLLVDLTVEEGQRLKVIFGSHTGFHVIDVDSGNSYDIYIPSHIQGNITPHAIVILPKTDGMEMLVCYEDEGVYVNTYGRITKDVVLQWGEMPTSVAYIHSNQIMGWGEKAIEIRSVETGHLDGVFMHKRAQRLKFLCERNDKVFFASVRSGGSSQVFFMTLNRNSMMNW
Protocol: as §1

CCN1CCN(c2ccc(Nc3cc(Nc4cccc5c4N(C(C)=O)CC5)ccn3)cc2)CC1 [Compound 1938]
% Displacement Point 1 (DDR2): -6.46% | % Displacement Point 2 (DDR2): 0.345% | % Displacement mean (DDR2): -3% | % Displacement Point 1 (DMPK): 4.22% | % Displacement Point 2 (DMPK): 0.782% | % Displacement mean (DMPK): 2.5% | % Displacement Point 1 [1]: 1% | % Displacement Point 2 [1]: -0.557% | % Displacement mean [1]: 0.201% | % Displacement Point 1 (TNIK): 23% | % Displacement Point 2 (TNIK): 25% | % Displacement mean (TNIK): 24%
